The text below walks through data of patent publication US20080171740A1, “Chemical Compounds” (SMITHKLINE BEECHAM CORPORATION, priority 2004, published 2008).

For one series, the target named is T1, CXCR4 receptor (Homo sapiens, UniProt P61073).
T1 construct: expressed in transfected cells; host or cells: HEK-293 cells (stably expressing human macrophage scavenging receptor) transduced with human CXCR4 BacMam and Gqi5 BacMam
The series can be described thus: Functional FLIPR assay (block of SDF-1 alpha induced [Ca2+]i change). The format is cell-based. As to conditions: HEK-293 cells with human CXCR4 BacMam and Gqi5 BacMam; antagonism of SDF-1 alpha; read-out: Functional assay (pIC50) (converted). The procedure: Human embryonic kidney (HEK-293) cells were maintained and harvested as described above. Cells were plated in 96-well, black clear bottom, poly-lysine coated plates at a concentration of 40,000 cells per well in a final volume of 100 ul containing human CXCR4 BacMam (MOI=25) and Gqi5 BacMam (MOI=12.5). The cells were incubated at 37° C., 5% CO2, 95% humidity for 24 h to allow for protein expression.
After the required incubation time the cells were washed once with 50 ul of fresh serum-free DMEM/F12 media containing probenicid. 50 ul of dye solution was then added to the cells (Calcium Plus Assay Kit Dye; Molecular Devices) was dissolved in 200 ml of the above probenicid/BSA containing media and incubated for 1 h. Cell plates were transferred to a Fluorometric Imaging Plate Reader (FLIPR). Upon addition the effect of the compounds on the change in [Ca^2+]i was examined to determine if the compounds were agonists or antagonists (ability to block SDF-1 alpha activity) at the CXCR4 receptor. IC50 values are determined and pKb values are calculated using the Leff and Dougall equation: KB=IC50/((2+([agonist]/EC50̂b)̂1/b -1) Where IC50 is that defined by the antagonist concentration-response curve [agonist] is the EC80 concentration of agonist used EC50 is that defined by the agonist concentration-response curve b is the slope of the agonist concentration-response curve.

For series [1], the system named is HIV-1 gp160 (HXB2 strain) mediated fusion with HOS (hCXCR4/hCCR5/hCD4/pHIV-LTR-luciferase) cells. The series can be described thus: Cell/cell fusion assay (HEK-293 expressing HIV-1 tat, rev, gp160 with HOS hCXCR4/hCCR5/hCD4/pHIV-LTR-luciferase cells). Format: cell-based. Conditions: Homo sapiens, HEK293; luciferase readout after 24 h; read-out: Fusion assay (pIC50) (converted). The source says: The complete coding sequences of HIV-1 tat (GenBank Accession No. X07861) and rev (GenBank Accession No. M34378) were cloned into pcDNA3.1 expression vectors containing G418 and hygromycin resistance genes, respectively. The complete coding sequence of the HIV-1 (HXB2 strain) gp160 envelope gene (nucleotide bases 6225-8795 of GenBank Accession No. K03455) was cloned into plasmid pCRII-TOPO. The three HIV genes were additionally inserted into the baculovirus shuttle vector, pFastBacMam1, under the transcriptional control of the CMV promoter. A construction of the pHIV-I LTR containing mutated NFkB sequences linked to the luciferase reporter gene was prepared by digesting pcDNA3.1, containing the G418 resistance gene, with Nru I and Bam HI to remove the CMV promoter. LTR-luc was then cloned into the Nru I/Bam HI sites of the plasmid vector. Plasmid preparations were performed after the plasmids were amplified in Escherichia coli strain DH5-alpha. The fidelity of the inserted sequences was confirmed by double-strand nucleotide sequencing using an ABI Prism Model 377 automated sequencer.
Recombinant BacMam baculoviruses were constructed from pFastBacMam shuttle plasmids by using the bacterial cell-based Bac-to-Bac system. Viruses were propagated in Sf9 (Spodoptera frugiperda) cells cultured in Hink's TNM-FH Insect media supplemented with 10% (v/v) fetal bovine serum and 0.1% (v/v) pluronic F-68 according to established protocols.
Human osteosarcoma (HOS) cells that naturally express human CXCR4 were transfected with human CCR5, human CD4 and the pHIV-LTR-luciferase plasmid using FuGENE 6 transfection reagent. Single cells were isolated and grown under selection condition in order to generate a stable HOS (hCXCR4/hCCR5/hCD4/pHIV-LTR-luciferase) clonal cell line. The cells were maintained in Dulbeccos modified Eagles media supplemented with 10% fetal calf serum (FCS), G418 (400 ug/ml), puromycin (1 ug/ml), mycophenolic acid (40 ug/ml), xanthine (250 ug/ml) and hypoxanthine (13.5 ug/ml) to maintain a selection pressure for cells expressing the LTR-luciferase, hCCR5 and hCD4, respectively. Human embryonic kidney (HEK-293) cells stably transfected to express the human macrophage scavenging receptor (Class A, type 1; GenBank Accession No. D90187), were maintained in DMEM/F-12 media (1:1) supplemented with 10% FCS and 1.5 ug/ml puromycin. The expression of this receptor by the HEK-293 cells enhances their ability to stick to tissue culture treated plasticware.
HEK-293 cells were harvested using enzyme-free cell dissociation buffer. The cells were resuspended in DMEM/F-12 media supplemented with 10% FCS and 1.5 ug/ml and counted. Tranductions were performed by direct addition of BacMam baculovirus containing insect cell media to cells. The cells were simultaneously transduced with BacMam baculovirus expressing HIV-1 tat, HIV-1 rev and HIV-1 gp160 (from the HXB2 HIV strain). Routinely an MOI of 10 of each virus was added to the media containing the cells. 2 mM butyric acid was also added to the cells at this stage to increase protein expression in transduced cells. The cells were subsequently mixed and seeded into a flask at 30 million cells per T225. The cells were incubated at 37° C., 5% CO2, 95% humidity for 24 h to allow for protein expression.
HEK and HOS cells were harvested in DMEM/F-12 media containing 2% FCS and DMEM media containing 2% FCS, respectively, with no selection agents added. Compounds were plated as 1 ul spots in 100% DMSO on a 96-well CulturPlate plates. HOS cells (50 ul) were added first to the wells, followed immediately by the HEK cells (50 ul). The final concentration of each cell type was 20,000 cells per well. Following these additions, the cells were returned to a tissue culture incubator (37° C.; 5% CO2/95% air) for an additional 24 h.
Following the 24 h incubation, total cellular luciferase activity was measured using the LucLite Plus assay kit (Packard, Meridien, Conn.). […]

The nature of series [2]: Compound cytotoxicity in the absence of virus (CellTiter-Glo). Conditions: human; non-infected HOS cultures, cell viability; read-out: Cytotox (pIC50) (converted). Format: cell-based. The procedure:
Compounds were profiled against two HIV-1 viruses, the M-tropic (CCR5 utilizing) Ba-L strain and the T-tropic (CXCR4 utilizing) IIIB strain. Both viruses were propagated in human peripheral blood lymphocytes. Compounds were tested for there ability to block infection of the HOS cell line (expressing hCXCR4/hCCR5/hCD4/pHIV-LTR-luciferase) by either HIV-1 Ba-L or HIV-1 IIIB. Compound cytotoxicity was also examined in the absence of virus addition.
HOS cells (expressing hCXCR4/hCCR5/hCD4/pHIV-LTR-luciferase) were harvested and diluted in Dulbeccos modified Eagles media supplemented with 2% FCS and non-essential amino acid to a concentration of 60,000 cells/ml. The cells were plated into 96-well plates (100 ul per well) and the plates were placed in a tissue culture incubator (37° C.; 5% CO2/95% air) for a period of 24 h.
Subsequently, 50 ul of the desired drug solution (4 times the final concentration) was added to each well and the plates were returned to the tissue culture incubator (37° C.; 5% CO2/95% air) for 1 h. Following this incubation 50 ul of diluted virus was added to each well (approximately 2 million RLU per well of virus). The plates were returned to the tissue culture incubator (37° C.; 5% CO2/95% air) and were incubated for a further 96 h.
Following this incubation the endpoint for the virally infected cultures was quantified following addition of Steady-Glo Luciferase assay system reagent (Promega, Madison, Wis.). Cell viability or non-infected cultures was measured using a CellTiter-Glo luminescent cell viability assay system (Promega, Madison, Wis.). All luminescent readouts are performed on a Topcount luminescence detector (Packard, Meridien, Conn.).
For orientation: Cellular ATP, detected with luciferase, serves as a proxy for viable cell number.

Series [3] concerns HIV-1 IIIB strain, T-tropic (CXCR4 utilizing). The series can be described thus: HOS HIV-1 infectivity assay. The format is cell-based. Conditions: for IC50: HOS, read-out: HOS (3B) (μM). The gist of the method: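 HOS hCXCR4/hCCR5/hCD4/pHIV-LTR-luc cells, DMEM 2% FCS, 24 h preculture; cpd 1 h pre-virus; HIV-1 (PBL-grown) ~2 million RLU/well; 96 h, 37 °C. Readout: Steady-Glo luciferase (infected), CellTiter-Glo (no virus).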

Another series deals with T-tropic HIV. Conditions: patients that are dual tropic or where only the T-tropic form is present; cited from earlier work.
Where [4] appears, read: Human immunodeficiency virus 1, IIIB, HOS HIV anti-infectivity assay, strain not named in Table 2, read-out: Activity Level.
The mark [5] stands for this setting: Human immunodeficiency virus 1, HOS cells, HIV-1 IIIB, 96 h, luciferase, read-out: HOS (3B).
The mark [6] stands for this setting: Human immunodeficiency virus 1, IIIB, 96 h.
Where [7] appears, read: Human immunodeficiency virus 1, IIIB, read-out: Activity Level.

pIC50: −log10 of the molar value. Like-named read-outs stand apart in the source and are kept apart here.

T1 sequence (P61073 whole entry): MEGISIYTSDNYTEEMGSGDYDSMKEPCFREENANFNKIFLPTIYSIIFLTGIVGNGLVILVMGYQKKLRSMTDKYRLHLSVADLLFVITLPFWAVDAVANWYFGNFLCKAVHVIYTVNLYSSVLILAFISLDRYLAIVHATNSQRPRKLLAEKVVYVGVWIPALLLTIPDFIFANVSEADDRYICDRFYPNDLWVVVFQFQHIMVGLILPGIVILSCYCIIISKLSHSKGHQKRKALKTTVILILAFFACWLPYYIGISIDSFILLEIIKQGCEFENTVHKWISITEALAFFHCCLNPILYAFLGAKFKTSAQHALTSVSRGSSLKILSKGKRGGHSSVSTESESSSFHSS

As to `Cc1cc(C)n2cc(CN(CCCCN)C3CCCc4cccnc43)nc2c1` (centres unmarked) [Example 15, N-[(5,7-Dimethylimidazo[1,2-a]pyridin-2-yl)methyl]-N-(5,6,7,8-tetrahydro-8-quinolinyl)-1,4-butanediamine], the IC50 at CXCR4 receptor was 93.3 nM; in series [1], 316 nM. The IC50 at 96 h in series [2] is above 100000 nM. The pIC50 in series [3] (setting [4]) is 6.30 to 7.00; in series [3] (setting [5]), 6.95.
As to `c1cc(CN2CCCNCCNCCCNCC2)ccc1CN1CCCNCCNCCCNCC1` [AMD-3100], the “T-tropic HIV viral load” value in the series on T-tropic HIV is listed as “significantly reduce T-tropic HIV viral load”.
Regarding `NCCCCN(Cc1cn2c(N3CCCC3)cccc2n1)C1CCCc2cccnc21` (centres unmarked) [Example 21, N-{[5-(1-Pyrrolidinyl)imidazo[1,2-a]pyridin-2-yl]methyl}-N-(5,6,7,8-tetrahydro-8-quinolinyl)-1,4-butanediamine], the IC50 was 20 nM at CXCR4 receptor, 102 nM in series [1] and 0.038 µM in series [3] (setting [6]). Also, the IC50 at 96 h in series [2] was above 100000 nM. Also, the pIC50 in series [3] (setting [7]) was above 7.00.
For `NCCCCN(Cc1cn2c(N3CCNCC3)cccc2n1)C1CCCc2cccnc21` (centres unmarked) [Example 22, N-{[5-(1-piperazinyl)imidazo[1,2-a]pyridin-2-yl]methyl}-N-(5,6,7,8-tetrahydro-8-quinolinyl)-1,4-butanediamine], the values for the IC50 (at CXCR4 receptor; in series [1]) were 2.88 nM and 2.82 nM, respectively. The IC50 at 96 h in series [2] was above 100000 nM. Moreover, the figures for the pIC50 in series [3] (setting [4]) and in series [3] (setting [5]) were above 7.00 and 8.66, respectively.
`NCCCCN(Cc1cn2cc(C(F)(F)F)cc(Cl)c2n1)C1CCCc2cccnc21` (centres unmarked) [Example 17, N-{[8-Chloro-6-(trifluoromethyl)imidazo[1,2-a]pyridin-2-yl]methyl}-N-(5,6,7,8-tetrahydro-8-quinolinyl)-1,4-butanediamine]: the IC50 on CXCR4 receptor is 347 nM; in series [1] it was 3890 nM; in series [3] (setting [6]) it was 0.3 µM. Further, the IC50 at 96 h in series [2] was above 100000 nM. The pIC50 in series [3] (setting [7]) was 6.30 to 7.00.
Regarding `NCCCCN(Cc1cn2cc(C(F)(F)F)ccc2n1)C1CCCc2cccnc21` (centres unmarked) [Example 7, N-(5,6,7,8-Tetrahydro-8-quinolinyl)-N-{[6-(trifluoromethyl)imidazo[1,2-a]pyridin-2-yl]methyl}-1,4-butanediamine], the IC50 at CXCR4 receptor is 63.1 nM; in series [1] it was 191 nM. In addition, the IC50 at 96 h in series [2] is above 100000 nM. In addition, the pIC50 in series [3] (setting [4]) was 6.30 to 7.00; in series [3] (setting [5]), 6.79.
